Reference: US20060002870A1 (priority 2004, published 2006)

Tested on: skin
Assay: Clinical study of intensity and tonality of self-tanning with merospheres, empty liposomes and ursolic acid (Chromameter, forearms)
Assay type: in vivo, human
Conditions: added to 3% DHA, 5% pentylene glycol; 5 hours and 24 hours; FIG. 7
Procedure: This clinical study is designed to investigate the intensity and tonality of self-tanning with a formulation containing different combination of merospheres, empty liposomes and ursolic acid. The following materials are tested: A total of […] panelists participate in the study. The panel is divided in seven groups of 7-8 corresponding to the seven test materials. The panelists apply the “control” formulation containing 3% DHA-PG on the right arm and the assigned test material on the other arm. For each panelist exact amounts (800 μl each) of the test materials are dispensed on the forearms and blended in by the panelists. Color measurements are obtained with the Chromameter before treatment and 5 hours and 24 hours. Decrease in reflectance and increase in red coloration and yellow coloration (ΔL*, Δa* and Δb* values) obtained from the Chromameter are calculated as compared to baseline skin color. Total color change ΔE* is calculated for each time point as follows: ΔE*={overscore (V(ΔL*)^2+(Δa*)^2+(Δb)}*)^2 For assessing the tonality, Chroma (ΔC*) is calculated and plotted against reflectance (ΔL* values) within the “Natural Universe of Tan”. This Natural Universe is the range of color of tan obtained by multiple or single exposures to the sun.

For `C[C@H]1[C@H](C)CC[C@]2(C(=O)O)CC[C@]3(C)C(=CC[C@@H]4[C@@]5(C)CC[C@H](O)C(C)(C)[C@@H]5CC[C@]43C)[C@H]12` [ursolic acid], the “Self-tanning effect (ΔE*)” value was “neither addition of empty liposomes nor ursolic acid alone changes the self-tanning effect”.
